These results are taken from ChEMBL document CHEMBL3045911, “Control of Contarinia nasturtii Keiffer (Diptera: Cecidomyiidea) by foliar sprays of acetamiprid on cauliflower transplants” (2007).

Calls of active or inactive are those of the source. The calls are words filed in the database; no cut-off is given here.

Assay [1] deals with Contarinia nasturtii. Description: Pesticidal activity against Contarinia nasturtii grown on […] assessed as larval pupation applied as foliar spray 8 days post-ovipositioning relative to control. The assay is classed as functional.
The test system of assay [2] is Contarinia nasturtii. Description: Pesticidal activity against Contarinia nasturtii grown on […] assessed as larvae survival applied as foliar spray 8 days post-ovipositioning relative to control. It is filed as functional.
Assay [3] has as its system Contarinia nasturtii. Put plainly: Pesticidal activity against Contarinia nasturtii grown on […] applied as foliar spray immediately post-ovipositioning relative to control. The assay is classed as functional.
Assay [4] deals with Contarinia nasturtii. Put plainly: Pesticidal activity against Contarinia nasturtii grown on three-leaf stage cauliflower seedling at 34 g a.i./ha applied as foliar spray 8 days post-ovipositioning measured after 10 days. The assay is classed as functional.
Assay [5] deals with Contarinia nasturtii. Description: Pesticidal activity against Contarinia nasturtii grown on three-leaf stage cauliflower seedling at 34 g a.i./ha applied as foliar spray 4 days post-ovipositioning measured after 7 days. The assay is classed as functional.
Assay [6] has as its system Contarinia nasturtii. Put plainly: Pesticidal activity against Contarinia nasturtii grown on three-leaf stage cauliflower seedling at 34 g a.i./ha applied as foliar spray immediately post-ovipositioning measured after 7 days. The assay is classed as functional.
Assay [7] relates to Contarinia nasturtii. Put plainly: Pesticidal activity against Contarinia nasturtii grown on three-leaf stage cauliflower seedling assessed as decrease in insect eggs laid per plant at 34 g a.i./ha applied as foliar spray 4 days post-ovipositioning measured after 7 days relative to control. It is filed as functional, organism-based.
Assay [8] concerns Contarinia nasturtii. Description: Pesticidal activity against Contarinia nasturtii grown on three-leaf stage cauliflower seedling assessed as insect egg death at 34 g a.i./ha applied as foliar spray immediately post-ovipositioning measured after 7 days relative to control. It is filed as functional.
Assay [9] has as its system Contarinia nasturtii. Put plainly: Pesticidal activity against Contarinia nasturtii grown on three-leaf stage cauliflower seedling assessed as insect egg hatching at 34 g a.i./ha applied as foliar spray immediately post-ovipositioning measured after 7 days (reference value: 100%). It is filed as functional.
Assay [10] concerns Contarinia nasturtii. Put plainly: Pesticidal activity against Contarinia nasturtii grown on three-leaf stage cauliflower seedling assessed as decrease in insect eggs laid per plant at 34 g a.i./ha applied as foliar spray immediately post-ovipositioning measured after 7 days relative to control. The assay is classed as functional, organism-based.
Assay [11] deals with Contarinia nasturtii. Put plainly: Pesticidal activity against Contarinia nasturtii grown on three-leaf stage cauliflower seedling at 34 g a.i./ha applied as foliar spray prior to oviposition measured after 7 days. It is filed as functional.
In assay [12] the test system is Contarinia nasturtii. Put plainly: Pesticidal activity against Contarinia nasturtii grown on three-leafstage cauliflower seedling assessed as insect egg hatching at 34 g a.i./ha applied as foliar spray prior to oviposition measured after 7 days (reference value: 100%). It is filed as functional.
Assay [13] has as its system Contarinia nasturtii. Description: Pesticidal activity against Contarinia nasturtii grown on three-leaf stage cauliflower seedling assessed as insect egg death at 34 g a.i./ha applied as foliar spray prior to oviposition measured after 7 days. The assay is classed as functional, organism-based.
The subject of assay [14] is Contarinia nasturtii. Description: Pesticidal activity against Contarinia nasturtii grown on three-leaf stage cauliflower seedling assessed as decrease in larval feeding time at 34 g a.i./ha applied as foliar spray 8 days post-ovipositioning measured as emergence of adult insect in the soil 7 days after cutting of seedling. It is filed as functional, organism-based.

Assay [15] deals with Contarinia nasturtii. Put plainly: Pesticidal activity against Contarinia nasturtii grown on three-leaf stage cauliflower seedling assessed as decrease in mean number of larvae at 34 g a.i./ha applied as foliar spray 8 days post-ovipositioning measured on the above ground part of seedling after 10 days. It is filed as functional, organism-based.
Assay [16] deals with Contarinia nasturtii. Put plainly: Pesticidal activity against Contarinia nasturtii grown on three-leaf stage cauliflower seedling assessed as decrease in damage to seedling tips at 34 g a.i./ha applied as foliar spray 8 days post-ovipositioning measured after 10 days. The assay is classed as functional, organism-based.
In assay [17] the test system is Contarinia nasturtii. Description: Pesticidal activity against Contarinia nasturtii grown on three-leaf stage cauliflower seedling assessed as insect egg hatching at 34 g a.i./ha applied as foliar spray 8 days post-ovipositioning measured after 10 days (reference value: 100%). The assay is classed as functional.
For assay [18], the system named is Contarinia nasturtii. Description: Pesticidal activity against Contarinia nasturtii grown on three-leaf stage cauliflower seedling assessed as insect egg hatching at 34 g a.i./ha applied as foliar spray 4 days post-ovipositioning measured after 7 days (reference value: 99.73 +/- 0.27%). It is filed as functional.
The subject of assay [19] is Contarinia nasturtii. Put plainly: Pesticidal activity against Contarinia nasturtii grown on three-leaf stage cauliflower seedling assessed as decrease in insect eggs laid per plant at 34 g a.i./ha applied as foliar spray prior to oviposition measured after 7 days relative to control. It is filed as functional, organism-based.
Assay [20] relates to Contarinia nasturtii. Put plainly: Pesticidal activity against Contarinia nasturtii grown on three-leaf stage cauliflower seedling assessed as mortality of insect adult at 34 g a.i./ha applied as foliar spray prior to oviposition measured after 48 hr relative to control. The assay is classed as functional.
The test system of assay [21] is Contarinia nasturtii. Description: Pesticidal activity against Contarinia nasturtii grown on three-leaf stage cauliflower seedling assessed as mortality of insect adult at 34 g a.i./ha applied as foliar spray prior to oviposition measured after 24 hr relative to control. The assay is classed as functional.

As usually defined, the mortality is the share of the test organisms that died. Turning to `C/C(=N\C#N)N(C)Cc1ccc(Cl)nc1` [ACETAMIPRID], the Activity in the assay with Contarinia nasturtii [1] is 20%; in the assay with Contarinia nasturtii [2], 30%; in the assay on Contarinia nasturtii [3], 99.9%; with Contarinia nasturtii [4], 69.89%; in the assay on Contarinia nasturtii [5] it was 99.83%; with Contarinia nasturtii [6], 100%. In addition, the Activity in the assay on Contarinia nasturtii [8] came out at 100%; in the assay on Contarinia nasturtii [9], 0%; in the assay on Contarinia nasturtii [11] it was 99.52%; in the assay with Contarinia nasturtii [12] it was 0.48%; in the assay on Contarinia nasturtii [17], 100%; in the assay on Contarinia nasturtii [18] it was 100%. For the same molecule, the result in the assay on Contarinia nasturtii [7], in the assay with Contarinia nasturtii [10] and in the assay on Contarinia nasturtii [16] was inactive. Also, the result with Contarinia nasturtii [13], with Contarinia nasturtii [14], in the assay on Contarinia nasturtii [15] and with Contarinia nasturtii [19] was Active. In addition, the results for the mortality at 34 g/ha in the assay on Contarinia nasturtii [20] and in the assay with Contarinia nasturtii [21] were 100% and 84.4%, respectively.
